Data on two compounds can be found in article PMC5228208 (MedChemComm, 2016).

One assay deals with HIV RT RNaseH. Type of assay: binding, HIV-1. The following applies: natural product.
The test system of the next assay is HIV. The following applies: natural products; reported previously, ref [10a]; cited from earlier work.

Regarding `CC(C)c1ccc(O)c(=O)c(O)c1` [β-thujaplicinol], in the assay with HIV RT RNaseH, the “HIV RT RNaseH Assays ThermoFluor ΔTm” value turned out to be 2.34 °C. Moreover, the “Cell-Based Assays Antiviral EC50” value with HIV is reported as “n.p. (‘n.p.’ indicates no protective effects (<35% cell viability throughout assay))”.

Take manicol: the “Cell-Based Assays Antiviral EC50” value with HIV is recorded as “n.p. (‘n.p.’ indicates no protective effects (<35% cell viability throughout assay))”.
